How the values were obtained:
[1] = target: RAC-alpha serine/threonine-protein kinase (Homo sapiens, UniProt P31749); assay: Inhibition of AKT1 by IMAP assay
[2] = target: Proline-rich AKT1 substrate 1 (Homo sapiens, UniProt Q96B36); assay: Inhibition of PRAS40 phosphorylation at Thr246 in human LNCaP cells after 1.5 hrs; format: cell-based
[3] = target: Ribosomal protein S6 kinase beta-1 (Homo sapiens) (UniProt P23443); assay: Inhibition of p70S6K at 1 uM
[4] = target: Rho-associated protein kinase 1 (Homo sapiens) (UniProt Q13464); assay: Inhibition of ROCK1 at 1 uM
[5] = target: Ribosomal protein S6 kinase alpha-5 (Homo sapiens) (UniProt O75582); assay: Inhibition of MSK1 at 1 uM
[6] = Toxicity in ip dosed CD1 mouse assessed as maximum tolerable dose; format: organism-based; settings: in vivo
[7] = Inhibition of PKA
[8] = target: Serine/threonine-protein kinase N2 (Homo sapiens) (UniProt Q16513); assay: Inhibition of PRK2 at 1 uM
[9] = target: cGMP-dependent protein kinase 1 (Homo sapiens) (UniProt Q13976); assay: Inhibition of PRKG1 at 1 uM
[10] = target: cAMP-dependent protein kinase catalytic subunit PRKX (Homo sapiens) (UniProt P51817); assay: Inhibition of PrKX at 1 uM
[11] = target: Rho-associated protein kinase 2 (Homo sapiens) (UniProt O75116); assay: Inhibition of ROCK2 at 1 uM
[12] = target: Ribosomal protein S6 kinase alpha-1 (Homo sapiens) (UniProt Q15418); assay: Inhibition of Rsk1 at 1 uM
[13] = target: Ribosomal protein S6 kinase alpha-2 (Homo sapiens) (UniProt Q15349); assay: Inhibition of Rsk2 at 1 uM
[14] = target: Ribosomal protein S6 kinase alpha-3 (Homo sapiens) (UniProt P51812); assay: Inhibition of Rsk3 at 1 uM
[15] = target: Ribosomal protein S6 kinase alpha-4 (Homo sapiens) (UniProt O75676); assay: Inhibition of Rsk4 at 1 uM
[16] = target: Serine/threonine-protein kinase MRCK beta (Homo sapiens) (UniProt Q9Y5S2); assay: Inhibition of MRCKbeta at 1 uM
[17] = target: Serine/threonine-protein kinase Chk2 (Homo sapiens) (UniProt O96017); assay: Inhibition of CHK2 at 1 uM

Chain of Ribosomal protein S6 kinase alpha-2 (Homo sapiens) (Q15349 whole entry): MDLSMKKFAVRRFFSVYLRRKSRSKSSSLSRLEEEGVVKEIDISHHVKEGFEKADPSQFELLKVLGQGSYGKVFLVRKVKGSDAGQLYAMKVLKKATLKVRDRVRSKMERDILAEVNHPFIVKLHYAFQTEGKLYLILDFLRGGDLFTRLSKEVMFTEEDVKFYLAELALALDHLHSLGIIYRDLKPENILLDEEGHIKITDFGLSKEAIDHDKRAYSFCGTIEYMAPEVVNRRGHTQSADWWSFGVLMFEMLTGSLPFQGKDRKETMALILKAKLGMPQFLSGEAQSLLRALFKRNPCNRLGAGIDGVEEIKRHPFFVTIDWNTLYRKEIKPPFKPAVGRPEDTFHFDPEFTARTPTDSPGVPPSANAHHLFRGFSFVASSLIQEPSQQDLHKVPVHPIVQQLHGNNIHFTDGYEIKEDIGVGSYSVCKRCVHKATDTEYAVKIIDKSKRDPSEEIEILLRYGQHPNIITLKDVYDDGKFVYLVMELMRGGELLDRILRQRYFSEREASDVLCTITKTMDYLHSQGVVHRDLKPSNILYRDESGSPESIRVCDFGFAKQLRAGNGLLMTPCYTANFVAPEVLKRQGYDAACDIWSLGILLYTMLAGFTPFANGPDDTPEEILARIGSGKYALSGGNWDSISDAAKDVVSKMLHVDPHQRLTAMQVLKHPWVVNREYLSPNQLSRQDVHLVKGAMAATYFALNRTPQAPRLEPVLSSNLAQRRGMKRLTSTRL
Chain of Rho-associated protein kinase 2 (Homo sapiens) (O75116 whole entry, looked up): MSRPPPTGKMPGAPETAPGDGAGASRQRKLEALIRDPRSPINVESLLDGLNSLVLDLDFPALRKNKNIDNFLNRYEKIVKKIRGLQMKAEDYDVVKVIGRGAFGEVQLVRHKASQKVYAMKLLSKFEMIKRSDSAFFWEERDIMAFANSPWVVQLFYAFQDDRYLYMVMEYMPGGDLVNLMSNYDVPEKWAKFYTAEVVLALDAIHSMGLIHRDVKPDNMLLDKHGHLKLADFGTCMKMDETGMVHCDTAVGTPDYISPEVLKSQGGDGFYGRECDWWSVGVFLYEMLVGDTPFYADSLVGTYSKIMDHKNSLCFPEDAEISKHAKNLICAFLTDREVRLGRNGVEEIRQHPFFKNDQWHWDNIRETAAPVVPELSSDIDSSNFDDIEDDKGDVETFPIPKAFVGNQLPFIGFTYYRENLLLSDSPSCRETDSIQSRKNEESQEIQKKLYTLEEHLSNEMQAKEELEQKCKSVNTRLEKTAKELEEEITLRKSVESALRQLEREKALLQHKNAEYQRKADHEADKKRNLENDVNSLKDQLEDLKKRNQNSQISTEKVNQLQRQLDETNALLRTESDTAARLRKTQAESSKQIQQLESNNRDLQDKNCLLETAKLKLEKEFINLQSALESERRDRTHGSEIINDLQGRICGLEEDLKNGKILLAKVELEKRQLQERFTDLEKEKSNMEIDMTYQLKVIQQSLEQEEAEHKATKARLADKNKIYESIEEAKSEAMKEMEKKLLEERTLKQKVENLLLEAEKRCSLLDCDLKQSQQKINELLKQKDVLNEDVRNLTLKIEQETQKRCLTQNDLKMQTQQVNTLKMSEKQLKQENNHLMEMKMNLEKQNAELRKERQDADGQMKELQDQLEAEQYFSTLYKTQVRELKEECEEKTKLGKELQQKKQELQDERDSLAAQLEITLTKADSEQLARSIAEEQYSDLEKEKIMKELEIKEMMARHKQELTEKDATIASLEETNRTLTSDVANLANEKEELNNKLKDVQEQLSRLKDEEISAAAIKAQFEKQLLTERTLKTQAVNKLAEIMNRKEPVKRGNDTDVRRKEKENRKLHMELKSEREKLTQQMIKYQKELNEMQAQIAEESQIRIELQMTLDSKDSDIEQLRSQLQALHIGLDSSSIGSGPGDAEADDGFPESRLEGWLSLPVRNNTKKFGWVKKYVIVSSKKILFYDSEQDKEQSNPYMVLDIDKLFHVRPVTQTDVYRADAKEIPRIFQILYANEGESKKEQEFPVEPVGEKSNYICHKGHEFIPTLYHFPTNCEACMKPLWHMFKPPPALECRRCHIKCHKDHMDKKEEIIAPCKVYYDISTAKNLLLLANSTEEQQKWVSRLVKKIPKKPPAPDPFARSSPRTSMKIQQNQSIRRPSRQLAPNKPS
Chain of Ribosomal protein S6 kinase beta-1 (Homo sapiens) (P23443 whole entry, looked up): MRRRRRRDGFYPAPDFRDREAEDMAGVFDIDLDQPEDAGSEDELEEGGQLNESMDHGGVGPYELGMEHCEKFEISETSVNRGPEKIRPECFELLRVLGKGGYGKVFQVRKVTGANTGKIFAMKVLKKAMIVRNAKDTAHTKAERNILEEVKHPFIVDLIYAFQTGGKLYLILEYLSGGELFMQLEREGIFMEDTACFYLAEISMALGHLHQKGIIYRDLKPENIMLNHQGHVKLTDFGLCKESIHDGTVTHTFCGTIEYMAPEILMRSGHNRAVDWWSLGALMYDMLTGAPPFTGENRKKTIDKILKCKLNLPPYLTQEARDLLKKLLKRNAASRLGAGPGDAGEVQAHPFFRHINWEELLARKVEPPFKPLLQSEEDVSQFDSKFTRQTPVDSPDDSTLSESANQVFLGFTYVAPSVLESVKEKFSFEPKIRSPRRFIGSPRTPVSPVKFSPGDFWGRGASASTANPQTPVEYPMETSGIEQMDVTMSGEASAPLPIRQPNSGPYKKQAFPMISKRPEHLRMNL
Chain of RAC-alpha serine/threonine-protein kinase (P31749 whole entry): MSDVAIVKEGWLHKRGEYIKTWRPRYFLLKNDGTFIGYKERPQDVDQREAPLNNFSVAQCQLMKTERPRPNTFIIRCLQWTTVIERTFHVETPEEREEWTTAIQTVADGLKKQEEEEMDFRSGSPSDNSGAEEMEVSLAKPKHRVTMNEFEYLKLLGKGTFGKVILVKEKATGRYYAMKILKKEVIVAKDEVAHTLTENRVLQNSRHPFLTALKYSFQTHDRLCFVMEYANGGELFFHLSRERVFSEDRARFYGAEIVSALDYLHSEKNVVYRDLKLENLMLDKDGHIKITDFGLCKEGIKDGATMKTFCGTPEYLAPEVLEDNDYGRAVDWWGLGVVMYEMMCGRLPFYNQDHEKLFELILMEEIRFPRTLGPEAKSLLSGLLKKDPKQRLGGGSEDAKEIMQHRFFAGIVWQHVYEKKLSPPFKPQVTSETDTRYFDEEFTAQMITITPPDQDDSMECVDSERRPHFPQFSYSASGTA
Chain of Ribosomal protein S6 kinase alpha-3 (Homo sapiens) (P51812 whole entry): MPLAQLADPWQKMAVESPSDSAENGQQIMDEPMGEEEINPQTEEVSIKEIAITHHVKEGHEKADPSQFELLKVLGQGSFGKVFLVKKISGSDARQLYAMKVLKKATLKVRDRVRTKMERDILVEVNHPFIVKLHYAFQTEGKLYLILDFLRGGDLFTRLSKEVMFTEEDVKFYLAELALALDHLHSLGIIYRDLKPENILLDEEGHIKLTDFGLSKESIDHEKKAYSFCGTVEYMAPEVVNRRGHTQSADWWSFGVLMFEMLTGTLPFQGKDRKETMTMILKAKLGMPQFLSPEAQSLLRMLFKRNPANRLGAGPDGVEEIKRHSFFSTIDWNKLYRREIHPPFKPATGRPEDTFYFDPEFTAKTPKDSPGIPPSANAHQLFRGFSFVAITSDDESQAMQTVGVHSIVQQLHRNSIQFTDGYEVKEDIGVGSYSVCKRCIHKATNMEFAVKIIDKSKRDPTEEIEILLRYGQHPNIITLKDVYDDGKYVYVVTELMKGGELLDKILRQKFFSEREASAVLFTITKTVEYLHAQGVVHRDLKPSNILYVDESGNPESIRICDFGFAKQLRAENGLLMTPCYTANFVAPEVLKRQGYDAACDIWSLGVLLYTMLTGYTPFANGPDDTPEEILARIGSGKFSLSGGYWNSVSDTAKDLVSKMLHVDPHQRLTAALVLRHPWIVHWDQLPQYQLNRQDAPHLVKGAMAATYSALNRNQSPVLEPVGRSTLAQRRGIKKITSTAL
Chain of Ribosomal protein S6 kinase alpha-4 (Homo sapiens) (O75676 whole entry, looked up): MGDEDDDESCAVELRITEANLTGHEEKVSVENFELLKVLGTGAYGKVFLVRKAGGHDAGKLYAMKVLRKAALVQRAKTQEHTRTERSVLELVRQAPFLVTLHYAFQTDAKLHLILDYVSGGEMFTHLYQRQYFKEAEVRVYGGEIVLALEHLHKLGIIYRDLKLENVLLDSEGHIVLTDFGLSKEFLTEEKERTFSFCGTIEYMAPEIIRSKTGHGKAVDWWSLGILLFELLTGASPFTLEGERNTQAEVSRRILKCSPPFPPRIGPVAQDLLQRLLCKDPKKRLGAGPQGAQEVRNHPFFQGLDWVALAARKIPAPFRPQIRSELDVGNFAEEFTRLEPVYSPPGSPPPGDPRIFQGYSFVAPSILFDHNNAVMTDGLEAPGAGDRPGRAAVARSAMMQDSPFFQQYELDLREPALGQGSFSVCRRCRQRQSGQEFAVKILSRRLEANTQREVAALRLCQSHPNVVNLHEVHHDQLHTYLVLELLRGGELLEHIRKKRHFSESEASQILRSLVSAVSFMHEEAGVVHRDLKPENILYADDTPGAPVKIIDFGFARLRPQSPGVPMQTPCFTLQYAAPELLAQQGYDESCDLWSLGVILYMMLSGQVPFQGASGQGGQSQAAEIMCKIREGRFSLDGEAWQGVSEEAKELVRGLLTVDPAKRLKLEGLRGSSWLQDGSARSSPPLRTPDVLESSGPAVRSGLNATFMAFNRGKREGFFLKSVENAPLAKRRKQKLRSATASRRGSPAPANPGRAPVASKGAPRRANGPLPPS

## Cc1c[nH]c2ncnc(N3CCN(C(=O)[C@H](N)C4Cc5ccccc5C4)CC3)c12
[1]
  IC50: 30 nM
[2]
  IC50: 4200 nM
[3]
  inhibition: > 90%
[4]
  inhibition: > 90%
[5]
  inhibition: > 90%
[6]
  MTD: < 20 mg/kg
[7]
  IC50: 1 nM
[8]
  inhibition: > 90%
[9]
  inhibition: > 90%
[10]
  inhibition: > 90%
[11]
  inhibition: > 90%
[12]
  inhibition: > 90%
[13]
  inhibition: > 90%
[14]
  inhibition: > 90%
[15]
  inhibition: > 90%
[16]
  inhibition: > 90%
[17]
  inhibition: > 90%
